These are literature values, as cited in patent publication US8211887B2, “Topical preparation and method for transdermal delivery and localization of therapeutic agents” (priority 2005, dated 2012).

Read-outs that look alike come from different tables or passages of the source.

The mark [1] stands for this setting: local anesthetic, for levobupivacaine: locally.

`CCN(CC)CCOC(=O)c1ccc(N)cc1Cl` [chloroprocaine]: under “local anesthetic”, the duration of action was 0.5 to 1 h, the onset of action was 6 to 12 min and the peak was 10 to 20 min.
Consider `CCCCN1CCCC[C@H]1C(=O)Nc1c(C)cccc1C` [levobupivacaine], for which the duration of action was 3 to 9 h (if used for epidural or peripheral nerve blocks or obstetrical anesthesia) and 2 to 4 h under setting [1]. Besides, the onset of action (local anesthetic) was 2 to 10 min.
In the case of `Cc1cccc(C)c1NC(=O)C1CCCCN1C` (stereo not drawn) [mepivacaine], where the note is “local anesthetic”, the duration of action was 0.75 to 1.5 h, the onset of action is 3 to 5 min and the peak is 15 to 45 min.
As to `CCN(CC)CCOC(=O)c1ccc(N)cc1` [procaine], under “local anesthetic”, the onset of action is 5 to 10 min and the peak result is given as “less than 30 minutes”. The duration of action entry under setting [1] is “less than 2 hours”.
Consider `CCCN1CCCC[C@H]1C(=O)Nc1c(C)cccc1C` [ropivacaine], for which, for the setting “local anesthetic”, the onset of action is 1 to 15 min and the peak is 20 to 45 min. Moreover, the duration of action under setting [1] was 2 to 6 h.
